Here are results for ten compounds from patent publication US20240109865A1, “INDAZOLE COMPOUNDS AS KINASE INHIBITORS” (TYRA BIOSCIENCES, INC., priority 2020, published 2024).

Where two headings read alike, the source gives them in different places.

In test [1] the test system is RT112/84 cells (FGFR3-fusion). The test is described as follows: RT112/84 cancer cell line cell viability assay (CellTiter-Glo 2.0). The format is cell-based. Particulars: Homo sapiens, 72 hours, Cell Titer Glo 2.0. An excerpt: (§1) Experimental Purpose: To detect the change of intracellular ATP by Cell Titer-Glo® and to evaluate the inhibitory effect of the compounds on cancer cell lines by determining the in vitro IC50 value of the compounds.
(§2) Cell Titer-Glo® 2.0 Luminescent cell viability assay reagent was purchased from Promega (Madison, WI). RT112/84 and KG-1 cell lines were purchased from American Type Culture Collection (Manassas, VA). UM-UC-14 cell line was purchased from Sigma (St. Louis, MO). RT112/84, UM-UC-14, and KG-1 cells were cultured in RPMI1640 media supplemented with 10% fetal bovine serum. Cultures were maintained at 37° C. in a humidified atmosphere of 5% C02 and 95% air.
(§3) Cell Viability Assay Procedure: Cells were plated in 96-well clear bottom/white plates (Corning #3903) at 10,000 cells/well in 100 μl of media, incubated overnight. The next day, test compound DMSO stock solutions were made at 10 mM and 2 μM final concentration. Compounds were then added to cells in a 9-dose, 10-fold dilution series starting at 30 μM with an HP 300e Digital Dispenser (each dose was applied in triplicate). DMSO was backfilled to each well up to 301 nL total volume of test compound+DMSO, and a total of 301 nL DMSO was added to a control/no test compound well in triplicate. The cells in cell culture plates were incubated with the compounds at 37° C. and 5% C02 for 72 hours. Then 50 μl of Cell Titer Glo 2.0 reagent was added to each well of the cell culture plates. The contents were covered from light and mixed on an orbital shaker at room temperature for 10 min. Luminescence was recorded by a Synergy H1 Microplate Reader (Biotek, Winooski, VT). Cells were assessed as a percentage of DMSO only treated control cells. Curves were plotted and IC50 values were calculated using the GraphPad Prism 8 program based on a sigmoidal dose-response equation (4 parameter).

A further test concerns the target FGFR1 (Homo sapiens (Human), UniProt P11362). The test is described as follows: Kinase assay, binding constants (Kd), kinase-tagged T7 phage, qPCR. The essentials: (§4)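 Competition binding: kinase-tagged T7 phage lysates mixed with immobilized biotinylated ligand on streptavidin beads plus compound (11-point 3-fold dilution series, 0.9% DMSO final). Bound kinase eluted with free ligand and quantified by qPCR. Kd from Hill equation fit, slope fixed at −1.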

A further test addresses FGFR2 (Homo sapiens (Human), UniProt P21802). Described as above. Summed up:
as §4

For another test, the target named is FGFR3 (V555M) (Homo sapiens (Human), UniProt P22607, V555M). Described as above. The settings on record: V555M mutant. The essentials: as §4
The next test deals with FGFR4 (Homo sapiens (Human), UniProt P22455). The test is described as above. The essentials: as §4
The next test has as its target FGFR3 (Homo sapiens (Human), UniProt P22607). The description is as above. Summed up:
as §4

For test [2], the target named is FGFR3-BAIAP2L1 Ba/F3 cells (Homo sapiens, UniProt P22607). The test is described as follows: Ba/F3 cell viability assay (CellTiter-Glo 2.0), FGFR3-BAIAP2L1 Ba/F3. The settings on record: for Ba/F3 FGFR1/FGFR3 Selectivity: FGFR3 > FGFR1 selectivity ratio in Ba/F3 FGFR fusion cell based assays; for IC50: read-out: Ba/F3 Cells FGFR3 (IC50 nM), FGFR3-BAIAP2L1 Ba/F3 cells, 48 hours, Cell Titer Glo 2.0. Type of test: cell-based. The essentials:
(§5)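 IL3-independent Ba/F3 lines driven by FGFR1-BCR or FGFR3-BAIAP2L1 fusions, in RPMI1640/10% FBS. 9-dose 10-fold series from 30 μM, triplicate, 48 h at 37 °C; viability by CellTiter-Glo 2.0 ATP luminescence relative to DMSO control, IC50 from 4-parameter sigmoidal fit.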

In the next test the target is FGFR1-BCR Ba/F3 cells (Homo sapiens, UniProt P11362). The test is described as follows: Ba/F3 cell viability assay (CellTiter-Glo 2.0), FGFR1-BCR Ba/F3. Type of test: cell-based. Particulars: read-out: Ba/F3 Cells FGFR1 (IC50 nM), 48 hours, Cell Titer Glo 2.0. The essentials: as §5
Test [3] relates to KG-1 cells (FGFR1-fusion). The test is described as follows: KG-1 cancer cell line cell viability assay (CellTiter-Glo 2.0). Type of test: cell-based. The settings on record: Homo sapiens, 72 hours, Cell Titer Glo 2.0.
From the text: as §1, §2, §3

FGFR1, sequence (P11362 22-822): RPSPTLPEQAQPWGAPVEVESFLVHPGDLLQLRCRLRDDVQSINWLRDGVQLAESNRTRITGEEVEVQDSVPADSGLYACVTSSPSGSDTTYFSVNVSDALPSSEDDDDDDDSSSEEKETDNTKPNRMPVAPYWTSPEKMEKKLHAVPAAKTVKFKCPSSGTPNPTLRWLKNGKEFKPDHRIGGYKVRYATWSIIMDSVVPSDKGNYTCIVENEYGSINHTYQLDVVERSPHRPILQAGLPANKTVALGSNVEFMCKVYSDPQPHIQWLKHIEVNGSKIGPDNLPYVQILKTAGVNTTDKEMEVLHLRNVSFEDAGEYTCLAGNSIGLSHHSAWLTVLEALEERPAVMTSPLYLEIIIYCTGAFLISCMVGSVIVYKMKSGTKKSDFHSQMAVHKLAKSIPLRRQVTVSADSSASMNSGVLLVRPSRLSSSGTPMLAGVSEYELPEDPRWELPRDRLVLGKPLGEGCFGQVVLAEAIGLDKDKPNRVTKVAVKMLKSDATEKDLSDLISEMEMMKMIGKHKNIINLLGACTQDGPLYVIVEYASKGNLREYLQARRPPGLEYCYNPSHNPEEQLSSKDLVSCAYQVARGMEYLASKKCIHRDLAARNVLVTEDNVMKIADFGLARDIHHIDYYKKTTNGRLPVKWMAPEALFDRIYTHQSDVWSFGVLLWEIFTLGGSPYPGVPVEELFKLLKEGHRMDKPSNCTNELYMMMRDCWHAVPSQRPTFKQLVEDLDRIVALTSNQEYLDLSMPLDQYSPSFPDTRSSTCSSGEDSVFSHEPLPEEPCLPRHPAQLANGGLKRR
FGFR1-BCR Ba/F3 cells, sequence (P11362 22-822 limits assumed, change not shown): as the sequence (P11362 22-822) above
FGFR2, sequence (P21802 22-821): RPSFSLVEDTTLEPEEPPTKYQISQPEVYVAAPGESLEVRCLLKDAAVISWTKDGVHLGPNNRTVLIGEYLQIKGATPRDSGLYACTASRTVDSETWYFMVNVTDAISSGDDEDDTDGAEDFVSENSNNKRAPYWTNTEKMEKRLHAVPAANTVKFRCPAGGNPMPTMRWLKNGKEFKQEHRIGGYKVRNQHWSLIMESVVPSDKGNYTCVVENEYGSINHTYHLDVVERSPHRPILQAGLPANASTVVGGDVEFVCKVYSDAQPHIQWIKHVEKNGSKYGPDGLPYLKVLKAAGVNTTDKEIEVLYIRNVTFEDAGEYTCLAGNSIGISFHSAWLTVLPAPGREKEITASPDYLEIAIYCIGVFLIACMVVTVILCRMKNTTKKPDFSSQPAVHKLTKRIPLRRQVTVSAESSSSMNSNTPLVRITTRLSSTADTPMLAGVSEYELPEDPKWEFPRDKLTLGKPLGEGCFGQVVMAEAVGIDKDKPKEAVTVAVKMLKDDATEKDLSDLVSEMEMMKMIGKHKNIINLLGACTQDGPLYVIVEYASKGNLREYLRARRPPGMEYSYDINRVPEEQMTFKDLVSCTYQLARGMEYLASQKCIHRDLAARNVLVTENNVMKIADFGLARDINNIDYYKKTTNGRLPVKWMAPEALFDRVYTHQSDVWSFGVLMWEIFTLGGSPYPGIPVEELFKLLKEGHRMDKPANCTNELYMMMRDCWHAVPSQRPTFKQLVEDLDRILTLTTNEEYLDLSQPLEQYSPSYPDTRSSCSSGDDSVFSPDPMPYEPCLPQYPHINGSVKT
FGFR3, sequence (P22607 23-806): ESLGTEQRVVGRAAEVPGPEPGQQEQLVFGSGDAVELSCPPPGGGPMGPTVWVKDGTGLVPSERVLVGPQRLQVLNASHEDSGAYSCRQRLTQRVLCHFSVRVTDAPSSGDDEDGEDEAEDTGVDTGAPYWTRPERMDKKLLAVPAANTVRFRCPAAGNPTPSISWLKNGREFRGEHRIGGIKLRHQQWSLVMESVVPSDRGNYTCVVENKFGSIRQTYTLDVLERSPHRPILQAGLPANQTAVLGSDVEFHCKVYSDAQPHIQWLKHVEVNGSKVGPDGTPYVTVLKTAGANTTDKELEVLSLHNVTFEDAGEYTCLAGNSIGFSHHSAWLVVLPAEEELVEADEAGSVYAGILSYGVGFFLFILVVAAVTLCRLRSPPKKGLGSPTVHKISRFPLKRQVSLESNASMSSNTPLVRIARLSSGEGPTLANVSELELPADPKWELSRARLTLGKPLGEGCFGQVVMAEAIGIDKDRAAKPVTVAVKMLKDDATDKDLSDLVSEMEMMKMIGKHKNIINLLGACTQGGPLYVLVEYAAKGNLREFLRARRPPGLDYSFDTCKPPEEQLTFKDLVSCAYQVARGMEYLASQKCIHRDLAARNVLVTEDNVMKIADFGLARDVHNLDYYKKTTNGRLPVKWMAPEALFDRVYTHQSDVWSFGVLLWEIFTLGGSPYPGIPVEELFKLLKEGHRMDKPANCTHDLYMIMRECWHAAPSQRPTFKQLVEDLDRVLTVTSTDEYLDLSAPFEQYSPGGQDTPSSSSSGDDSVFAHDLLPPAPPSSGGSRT
FGFR3-BAIAP2L1 Ba/F3 cells, sequence (P22607 23-806 limits assumed, change not shown): as the sequence (P22607 23-806) above
FGFR3 (V555M), sequence (P22607 23-806 V555M): as the sequence (P22607 23-806) above, with V533M counted along it
FGFR4, sequence (P22455 22-802): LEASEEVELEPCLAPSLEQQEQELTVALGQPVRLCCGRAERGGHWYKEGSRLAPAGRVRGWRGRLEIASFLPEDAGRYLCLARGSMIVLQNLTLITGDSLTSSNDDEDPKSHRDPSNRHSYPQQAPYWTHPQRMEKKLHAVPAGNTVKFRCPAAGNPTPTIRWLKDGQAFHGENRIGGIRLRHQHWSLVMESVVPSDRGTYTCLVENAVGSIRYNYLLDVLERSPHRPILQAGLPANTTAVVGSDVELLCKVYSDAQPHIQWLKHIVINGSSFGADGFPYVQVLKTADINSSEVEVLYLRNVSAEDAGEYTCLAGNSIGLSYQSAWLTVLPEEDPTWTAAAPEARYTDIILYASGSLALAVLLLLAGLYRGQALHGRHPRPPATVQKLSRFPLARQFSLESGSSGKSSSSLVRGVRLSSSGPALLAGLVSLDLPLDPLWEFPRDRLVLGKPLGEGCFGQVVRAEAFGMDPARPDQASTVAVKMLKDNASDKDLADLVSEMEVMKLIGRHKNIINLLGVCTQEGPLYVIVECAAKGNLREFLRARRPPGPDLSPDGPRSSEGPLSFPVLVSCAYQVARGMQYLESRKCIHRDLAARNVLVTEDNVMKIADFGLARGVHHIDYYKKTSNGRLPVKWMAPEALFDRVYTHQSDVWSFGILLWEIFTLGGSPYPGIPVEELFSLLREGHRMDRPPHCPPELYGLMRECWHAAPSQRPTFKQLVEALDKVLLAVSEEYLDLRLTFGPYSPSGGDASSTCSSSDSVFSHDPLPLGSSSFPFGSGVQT

As for `C[C@@H](Oc1ccc2[nH]nc(-c3cnn(C4CCN(C5COC5)CC4)c3)c2c1)c1c(Cl)cncc1Cl` [Example 87, 5-[(1R)-1-(3,5-dichloro-4-pyridyl)ethoxy]-3-[1-[1-(oxetan-3-yl)-4-piperidyl]pyrazol-4-yl]-1H-indazole], the IC50 lay in the range of 1 to 20 nM in [1], 1 to 20 nM in test [2], 20 to 100 nM on FGFR1-BCR Ba/F3 cells and 20 to 100 nM in test [3]. Moreover, the dissociation constant Kd is 1 to 20 nM on FGFR1; 1 to 20 nM at FGFR2; 1 to 20 nM on FGFR3 (V555M); 20 to 100 nM on FGFR4; 1 to 20 nM on FGFR3. The “Ba/F3 FGFR1/FGFR3 Selectivity” value in test [2] is recorded as 17.
In the case of `C[C@@H](Oc1ccc2[nH]nc(-c3cnn([C@H]4CCNC4)c3)c2c1)c1c(Cl)cncc1Cl` [Example 88, 5-[(1R)-1-(3,5-dichloro-4-pyridyl)ethoxy]-3-[1-[(3S)-pyrrolidin-3-yl]pyrazol-4-yl]-1H-indazole], the IC50 was 20 to 100 nM in [1], 1 to 20 nM in [2], 100 to 300 nM at FGFR1-BCR Ba/F3 cells and 100 to 300 nM in test [3]. For the same compound, the Kd on FGFR1 is 1 to 20 nM; on FGFR2, 1 to 20 nM; on FGFR3 (V555M), 1 to 20 nM; on FGFR4, 20 to 100 nM; at FGFR3, 1 to 20 nM. For the same compound, the “Ba/F3 FGFR1/FGFR3 Selectivity” value in [2] is on record as 20.
With `Cc1ncc(Cl)c([C@@H](C)Oc2ccc3[nH]nc(-c4cnn(C5CCN(C(C)C)CC5)c4)c3c2)c1Cl` [Example 93, 5-[(1R)-1-(3,5-dichloro-2-methyl-4-pyridyl)ethoxy]-3-[1-(1-isopropyl-4-piperidyl)pyrazol-4-yl]-1H-indazole], the IC50 in [1] lay in the range of 1 to 20 nM; in test [2], 20 to 100 nM; on FGFR1-BCR Ba/F3 cells, 100 to 300 nM; in test [3], 100 to 300 nM. The Kd at FGFR1 lay in the range of 1 to 20 nM; on FGFR2 it was 1 to 20 nM; on FGFR3 (V555M), 1 to 20 nM; at FGFR4, 20 to 100 nM; on FGFR3, 1 to 20 nM. Further, the “Ba/F3 FGFR1/FGFR3 Selectivity” value in [2] is given as 11.
With `Cc1ncc(Cl)c([C@@H](C)Oc2ccc3[nH]nc(-c4cnn(C5CCN(C6COC6)CC5)c4)c3c2)c1Cl` [Example 94, 5-[(1R)-1-(3,5-dichloro-2-methyl-4-pyridyl)ethoxy]-3-[1-[1-(oxetan-3-yl)-4-piperidyl]pyrazol-4-yl]-1H-indazole], the IC50 is 1 to 20 nM in test [1], 15 nM in test [2] (given as a number), 100 to 300 nM on FGFR1-BCR Ba/F3 cells and 100 to 300 nM in [3]. In addition, the Kd at FGFR1 fell in the range of 20 to 100 nM; at FGFR2, 1 to 20 nM; at FGFR3 (V555M) it was 1 to 20 nM; at FGFR4 it was 20 to 100 nM; at FGFR3, 1 to 20 nM. Moreover, the “Ba/F3 FGFR1/FGFR3 Selectivity” value in test [2] came out at 11.
With `Cc1ncc(Cl)c([C@@H](C)Oc2ccc3[nH]nc(-c4cnn(C5CCN(C6CCC6)CC5)c4)c3c2)c1Cl` [Example 95, 3-[1-(1-cyclobutyl-4-piperidyl)pyrazol-4-yl]-5-[(1R)-1-(3,5-dichloro-2-methyl-4-pyridyl)ethoxy]-1H-indazole], the IC50 in test [1] is 20 to 100 nM; in test [2] it was 20 to 100 nM; on FGFR1-BCR Ba/F3 cells, greater than 300 nM; in test [3] it was 100 to 300 nM. The Kd at FGFR1 lay in the range of 1 to 20 nM; on FGFR2, 1 to 20 nM; at FGFR3 (V555M), 1 to 20 nM; at FGFR4, 20 to 100 nM; on FGFR3, 1 to 20 nM. Also, the “Ba/F3 FGFR1/FGFR3 Selectivity” value in [2] turned out to be 14.
In the case of `C[C@@H](Oc1ccc2[nH]nc(-c3ccc(N4CC5(CCN5C)C4)nc3)c2c1)c1c(Cl)cncc1Cl` [Example 96, 5-[(1R)-1-(3,5-dichloro-4-pyridyl)ethoxy]-3-[6-(1-methyl-1,6-diazaspiro[3.3]heptan-6-yl)-3-pyridyl]-1H-indazole], the IC50 in test [1] lay within 1 to 20 nM; in test [2], 1 to 20 nM; at FGFR1-BCR Ba/F3 cells, 20 to 100 nM; in test [3], 20 to 100 nM. Besides, the Kd on FGFR1, at FGFR2, on FGFR3 (V555M), on FGFR4 and at FGFR3 was 1 to 20 nM in each case. Also, the “Ba/F3 FGFR1/FGFR3 Selectivity” value in test [2] came to 13.
For the compound `C[C@@H](Oc1ccc2[nH]nc(-c3ccc(N4CCC5(CC4)CN(C)CC(=O)N5)nc3)c2c1)c1c(Cl)cncc1Cl` [Example 97, 9-[5-[5-[(1R)-1-(3,5-dichloro-4-pyridyl)ethoxy]-1H-indazol-3-yl]-2-pyridyl]-4-methyl-1,4,9-triazaspiro[5.5]undecan-2-one], the IC50 lay within 1 to 20 nM in [1], 1 to 20 nM in [2], 20 to 100 nM on FGFR1-BCR Ba/F3 cells and 20 to 100 nM in test [3]. The Kd at FGFR1, at FGFR2, on FGFR3 (V555M), at FGFR4 and at FGFR3 was 1 to 20 nM each time. Also, in test [2], the “Ba/F3 FGFR1/FGFR3 Selectivity” value is recorded as 15.
For the compound `C[C@@H](Oc1ccc2[nH]nc(-c3ccc(N4CCC5(CC4)CN(C)CC(=O)N5C)nc3)c2c1)c1c(Cl)cncc1Cl` [Example 98, 9-[5-[5-[(1R)-1-(3,5-dichloro-4-pyridyl)ethoxy]-1H-indazol-3-yl]-2-pyridyl]-1,4-dimethyl-1,4,9-triazaspiro[5.5]undecan-2-one], the IC50 in [1] fell in the range of 1 to 20 nM; in test [2] it was 1 to 20 nM; on FGFR1-BCR Ba/F3 cells, 20 to 100 nM; in [3], 20 to 100 nM. The Kd on FGFR1, on FGFR2, on FGFR3 (V555M), on FGFR4 and on FGFR3 was 1 to 20 nM throughout. In addition, in test [2], the “Ba/F3 FGFR1/FGFR3 Selectivity” value is listed as 24.
For `C[C@@H](Oc1ccc2[nH]nc(-c3cnn(C4CCOCC4)c3)c2c1)c1c(Cl)cncc1Cl` [Example 106, 5-[(1R)-1-(3,5-dichloro-4-pyridyl)ethoxy]-3-(1-tetrahydropyran-4-ylpyrazol-4-yl)-1H-indazole], the IC50 is 1 to 20 nM in [1], 1 to 20 nM in [2], 100 to 300 nM on FGFR1-BCR Ba/F3 cells and 100 to 300 nM in [3]. The Kd at FGFR1, at FGFR2, at FGFR3 (V555M), on FGFR4 and on FGFR3 was 1 to 20 nM throughout. Moreover, the “Ba/F3 FGFR1/FGFR3 Selectivity” value in test [2] was determined as 11.
Consider `Cc1ncc(Cl)c([C@@H](C)Oc2ccc3[nH]nc(-c4ccc(N5CC6(C5)CN(S(C)(=O)=O)C6)nc4)c3c2)c1Cl` [Example 107, 5-[(1R)-1-(3,5-dichloro-2-methyl-4-pyridyl)ethoxy]-3-[6-(2-methylsulfonyl-2,6-diazaspiro[3.3]heptan-6-yl)-3-pyridyl]-1H-indazole], for which the IC50 in [1] was in the range of 20 to 100 nM; in [2], 1 to 20 nM; at FGFR1-BCR Ba/F3 cells it was 100 to 300 nM; in test [3] it was 100 to 300 nM. The Kd fell in the range of 20 to 100 nM on FGFR1; 20 to 100 nM at FGFR2; 1 to 20 nM at FGFR3 (V555M); 1 to 20 nM on FGFR4; 1 to 20 nM at FGFR3. Also, the “Ba/F3 FGFR1/FGFR3 Selectivity” value in test [2] was found to be 16.
